According to patent US9918915B2, “Personal care compositions providing enhanced cooling sensation” (THE PROCTER & GAMBLE COMPANY, priority 2007, dated 2018):
Several values for one entry are separate records, joined by “and”; a condition that tells them apart may be missing. Equal entries are not always repeated. Blank lines part the entries; values can stand above or below the compound they belong to.

Tests used:
panelists = test: Sensory evaluation of cooling sensation after brushing with coolant dentifrice followed by aqueous rinse with or without calcium; format: in vivo, human; design: key to Cooling Sensation Score: 0 = no cooling, 60 = intense cooling; 7.5 = definite cooling; conditions: for Cooling Sensation Score: 0-60 scale
Experimental: Sensory evaluation studies of coolant activity were conducted using a methodology patterned after the techniques described in M. C. Meilgaard, et al., Sensory Evaluation Techniques, 4th Ed. (2007). In one study, a panel of 11 trained sensory experts evaluated cooling sensation experienced after brushing with a dentifrice containing coolant(s) followed by rinsing with an aqueous rinse containing a calcium ion source. Panelists brushed teeth with 1.5 grams of a test dentifrice (containing coolant) or control (no coolant) and then expectorated. After brush expectoration, panelists evaluated cooling intensity, assigning a number between 0 (no cooling) to 60 (intense cooling). Panelists then rinsed mouth with 15 ml. of an aqueous rinse (with or without calcium) and expectorated. After rinse expectoration, panelists evaluated cooling intensity according to the same 0 to 60 scale. Evaluations were conducted at 5, 15, 30, 45, 60 minute, etc. time points. At each evaluation, panelists were instructed to breathe in through pursed lips and evaluate overall cooling sensation. In this test, a numerical score of 7.5 indicates meaningful or definite cooling.

human TRPM8 = human TRPM8 (Homo sapiens, UniProt Q7Z2W7); test: FLIPR intracellular calcium flux (Fluo-4) in HEK cells stably transfected with human TRPM8; conditions: HEK cells with human TRPM8
[1] = concentration where the cooling effect could be clearly recognized; cited from earlier work

human TRPM8, sequence (Q7Z2W7 whole entry): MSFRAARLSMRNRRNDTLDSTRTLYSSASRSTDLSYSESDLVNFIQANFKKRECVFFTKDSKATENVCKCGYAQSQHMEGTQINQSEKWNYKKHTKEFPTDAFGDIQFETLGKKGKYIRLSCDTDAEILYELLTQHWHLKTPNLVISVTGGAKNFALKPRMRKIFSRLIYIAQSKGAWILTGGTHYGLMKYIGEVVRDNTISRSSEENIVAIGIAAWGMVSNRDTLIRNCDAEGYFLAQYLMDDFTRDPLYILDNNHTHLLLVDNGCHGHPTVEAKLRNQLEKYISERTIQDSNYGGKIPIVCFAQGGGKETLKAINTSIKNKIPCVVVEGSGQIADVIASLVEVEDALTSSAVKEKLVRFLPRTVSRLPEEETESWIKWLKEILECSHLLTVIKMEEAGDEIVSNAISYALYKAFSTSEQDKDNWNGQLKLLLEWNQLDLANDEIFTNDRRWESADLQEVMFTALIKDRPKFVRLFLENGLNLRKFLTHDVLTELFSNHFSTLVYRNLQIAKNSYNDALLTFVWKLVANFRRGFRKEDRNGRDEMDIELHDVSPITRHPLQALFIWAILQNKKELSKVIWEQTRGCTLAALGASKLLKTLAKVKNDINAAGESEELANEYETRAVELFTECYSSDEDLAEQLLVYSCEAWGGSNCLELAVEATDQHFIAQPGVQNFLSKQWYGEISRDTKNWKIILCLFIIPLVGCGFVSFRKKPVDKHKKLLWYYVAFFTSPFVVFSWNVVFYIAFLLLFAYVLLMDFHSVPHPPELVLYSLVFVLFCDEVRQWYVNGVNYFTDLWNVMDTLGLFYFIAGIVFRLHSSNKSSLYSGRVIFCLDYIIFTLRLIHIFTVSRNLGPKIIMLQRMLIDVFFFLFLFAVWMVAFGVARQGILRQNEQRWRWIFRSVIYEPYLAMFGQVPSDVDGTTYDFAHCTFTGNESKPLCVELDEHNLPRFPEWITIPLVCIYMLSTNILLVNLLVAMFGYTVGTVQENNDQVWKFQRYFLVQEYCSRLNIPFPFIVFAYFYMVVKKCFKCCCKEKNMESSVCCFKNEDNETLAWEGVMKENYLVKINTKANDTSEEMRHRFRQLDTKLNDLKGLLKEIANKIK

Sensation described by panelists (panelists; particularly when used at higher levels): “burning” sensation
Average Fluorescence (n = 3) (human TRPM8; 6.25 uM G-180 alone, Fluo-4): 14901.88 and 17511.73 and 17474.37
Activation of the TRPM8 receptor (calcium ion flux vs. control) (human TRPM8; 6.25 uM): activated the TRPM8 receptor
SMILES: CC1CCC(C(C)C)C(C(=O)Nc2ccc(CC#N)cc2)C1 (stereo not drawn) [Composition G-180, N-(4-cyanomethylphenyl)-ρ-menthanecarboxamide]
Cooling Sensation Score (panelists; 75 ppm coolant in paste, rinse Ca+2 0 ppm, 0 min.): 21.1
Cooling Sensation Score (panelists; 75 ppm coolant in paste, rinse Ca+2 0 ppm, 5 min.): 23.7
Cooling Sensation Score (panelists; 75 ppm coolant in paste, rinse Ca+2 0 ppm, 15 min.): 22.9
Cooling Sensation Score (panelists; 75 ppm coolant in paste, rinse Ca+2 0 ppm, 30 min.): 15.0
Cooling Sensation Score (panelists; 75 ppm coolant in paste, rinse Ca+2 0 ppm, 45 min.): 11.0
Cooling Sensation Score (panelists; 75 ppm coolant in paste, rinse Ca+2 0 ppm, 60 min.): 5.8
Cooling Sensation Score (panelists; 75 ppm coolant in paste, rinse Ca+2 271 ppm, 0 min.): 17.5
Cooling Sensation Score (panelists; 75 ppm coolant in paste, rinse Ca+2 271 ppm, 5 min.): 18.3
Cooling Sensation Score (panelists; 75 ppm coolant in paste, rinse Ca+2 271 ppm, 15 min.): 20.7
Cooling Sensation Score (panelists; 75 ppm coolant in paste, rinse Ca+2 271 ppm, 30 min.): 16.8
Cooling Sensation Score (panelists; 75 ppm coolant in paste, rinse Ca+2 271 ppm, 45 min.): 13.3
Cooling Sensation Score (panelists; 75 ppm coolant in paste, rinse Ca+2 271 ppm, 60 min.): 8.4
Cooling Sensation Score (panelists; 75 ppm coolant in paste, rinse Ca+2 542 ppm, 0 min.): 18.8
Cooling Sensation Score (panelists; 75 ppm coolant in paste, rinse Ca+2 542 ppm, 5 min.): 25.0
Cooling Sensation Score (panelists; 75 ppm coolant in paste, rinse Ca+2 542 ppm, 15 min.): 29.2
Cooling Sensation Score (panelists; 75 ppm coolant in paste, rinse Ca+2 542 ppm, 30 min.): 24.4
Cooling Sensation Score (panelists; 75 ppm coolant in paste, rinse Ca+2 542 ppm, 45 min.): 18.6
Cooling Sensation Score (panelists; 75 ppm coolant in paste, rinse Ca+2 542 ppm, 60 min.): 14.1
Cooling Sensation Score (panelists; 150 ppm coolant in paste, rinse Ca+2 0 ppm, 0 min.): 16.7
Cooling Sensation Score (panelists; 150 ppm coolant in paste, rinse Ca+2 0 ppm, 5 min.): 16.0
Cooling Sensation Score (panelists; 150 ppm coolant in paste, rinse Ca+2 0 ppm, 15 min.): 25.7
Cooling Sensation Score (panelists; 150 ppm coolant in paste, rinse Ca+2 0 ppm, 30 min.): 19.5
Cooling Sensation Score (panelists; 150 ppm coolant in paste, rinse Ca+2 0 ppm, 45 min.): 10.0
Cooling Sensation Score (panelists; 150 ppm coolant in paste, rinse Ca+2 0 ppm, 60 min.): 1.5
Cooling Sensation Score (panelists; 150 ppm coolant in paste, rinse Ca+2 271 ppm, 0 min.): 12.1
Cooling Sensation Score (panelists; 150 ppm coolant in paste, rinse Ca+2 271 ppm, 5 min.): 22.5
Cooling Sensation Score (panelists; 150 ppm coolant in paste, rinse Ca+2 271 ppm, 15 min.): 26.0
Cooling Sensation Score (panelists; 150 ppm coolant in paste, rinse Ca+2 271 ppm, 30 min.): 17.1
Cooling Sensation Score (panelists; 150 ppm coolant in paste, rinse Ca+2 271 ppm, 45 min.): 11.2
Cooling Sensation Score (panelists; 150 ppm coolant in paste, rinse Ca+2 271 ppm, 60 min.): 0
Cooling Sensation Score (panelists; 150 ppm coolant in paste, rinse Ca+2 542 ppm, 0 min.): 15.1
Cooling Sensation Score (panelists; 150 ppm coolant in paste, rinse Ca+2 542 ppm, 5 min.): 21.9
Cooling Sensation Score (panelists; 150 ppm coolant in paste, rinse Ca+2 542 ppm, 15 min.): 27.2
Cooling Sensation Score (panelists; 150 ppm coolant in paste, rinse Ca+2 542 ppm, 30 min.): 24.8
Cooling Sensation Score (panelists; 150 ppm coolant in paste, rinse Ca+2 542 ppm, 45 min.): 18.2
Cooling Sensation Score (panelists; 150 ppm coolant in paste, rinse Ca+2 542 ppm, 60 min.): 8.0
Potentiating effect of calcium ions on cooling intensity and duration (panelists; at the levels of coolant and calcium used): particularly evident
Duration of cooling with calcium (panelists; dentifrice followed by calcium rinse): up to 60 minutes

SMILES: CC1CCC(C(C)C)C(O)C1 (stereo not drawn) [Menthol, menthol]
Cooling Sensation Score (panelists; 1500 ppm coolant in paste, rinse Ca+2 542 ppm, 0 min.): 18.0
Cooling Sensation Score (panelists; 1500 ppm coolant in paste, rinse Ca+2 542 ppm, 5 min.): 17.5
Cooling Sensation Score (panelists; 1500 ppm coolant in paste, rinse Ca+2 542 ppm, 15 min.): 4.4
Cooling Sensation Score (panelists; 1500 ppm coolant in paste, rinse Ca+2 542 ppm, 30 min.): 0
Cooling Sensation Score (panelists; 1500 ppm coolant in paste, rinse Ca+2 542 ppm, 45 min.): 0
Cooling Sensation Score (panelists; 1500 ppm coolant in paste, rinse Ca+2 542 ppm, 60 min.): 0
Calcium enhancing effect on cooling (panelists; 1500 ppm level of coolant in dentifrice): calcium enhancing effect was not observed
Cooling threshold [1]: about 800 ppb

SMILES: CC(C)[C@@H]1CC[C@@H](C)C[C@@H]1O [d-neomenthol]
Cooling threshold [1]: about 25,000 ppb

SMILES: CC(C)[C@H]1CC[C@H](C)C[C@H]1O [l-neomenthol]
Cooling threshold [1]: about 3,000 ppb
